This data set has as its system CCRIS mutagenicity, Ames/micronucleus/aberration tests. The experiment in a line: CCRIS mutagenicity studies.
[1] abbreviates: Test System: AMES SALMONELLA TYPHIMURIUM, Strain/Indicator: TA98, Metabolic Activation: NONE, Method: PREINCUBATION
[2] abbreviates: Test System: AMES SALMONELLA TYPHIMURIUM, Strain/Indicator: TA100, Metabolic Activation: NONE, Method: PREINCUBATION

Molecules are shown by their SMILES. Active and inactive are the calls of the source. No rule for the calls is given here.

As to `O=[N+]([O-])c1ccc2c(ccc3c4ccccc4ccc23)c1`, the mutagenic call was “active; positive” (Test System: AMES SALMONELLA TYPHIMURIUM, Strain/Indicator: TA98(1,8-DNP6), Metabolic Activation: NONE); “active; positive” (Test System: AMES SALMONELLA TYPHIMURIUM, Strain/Indicator: TA98(1,8-DNP6), Metabolic Activation: RAT, LIVER, S-9, AROCLOR 1254); “active; positive” (Test System: AMES SALMONELLA TYPHIMURIUM, Strain/Indicator: TA98(NR), Metabolic Activation: NONE); “active; positive” (Test System: AMES SALMONELLA TYPHIMURIUM, Strain/Indicator: TA98(NR), Metabolic Activation: RAT, LIVER, S-9, AROCLOR 1254); “active; positive” (Test System: AMES SALMONELLA TYPHIMURIUM, Strain/Indicator: TA98, Metabolic Activation: NONE); “active; positive” (Test System: AMES SALMONELLA TYPHIMURIUM, Strain/Indicator: TA98, Metabolic Activation: RAT, LIVER, S-9, AROCLOR 1254). The mutagenic call was “active; positive” (Test System: AMES SALMONELLA TYPHIMURIUM, Strain/Indicator: TA100(NR), Metabolic Activation: NONE); “active; positive” (Test System: AMES SALMONELLA TYPHIMURIUM, Strain/Indicator: TA100(NR), Metabolic Activation: RAT, LIVER, S-9, AROCLOR 1254); “active; positive” (Test System: AMES SALMONELLA TYPHIMURIUM, Strain/Indicator: TA100, Metabolic Activation: NONE); “active; positive” (Test System: AMES SALMONELLA TYPHIMURIUM, Strain/Indicator: TA100, Metabolic Activation: RAT, LIVER, S-9, AROCLOR 1254); “active; positive” (Test System: AMES SALMONELLA TYPHIMURIUM, Strain/Indicator: TA104, Metabolic Activation: NONE); “active; positive” (Test System: AMES SALMONELLA TYPHIMURIUM, Strain/Indicator: TA104, Metabolic Activation: RAT, LIVER, S-9, AROCLOR 1254).

As for `Cc1cccc(N)c1N`, the mutagenic call is “active; positive” (Test System: AMES SALMONELLA TYPHIMURIUM, Strain/Indicator: TA98, Metabolic Activation: RAT, LIVER, MICROSOMES, AROCLOR 1254, Method: PREINCUBATION); “active; positive” (Test System: AMES SALMONELLA TYPHIMURIUM, Strain/Indicator: TA98, Metabolic Activation: RAT, LIVER, MICROSOMES, DIAMINOTOLUENE, Method: PREINCUBATION); “active; positive” (Test System: AMES SALMONELLA TYPHIMURIUM, Strain/Indicator: TA98, Metabolic Activation: RAT, LIVER, MICROSOMES, Method: PREINCUBATION).

As to `NN(CCO)c1ccn([C@@H]2O[C@H](CO)[C@@H](O)[C@H]2O)c(=O)n1`, the mutagenic call (Test System: CHINESE HAMSTER V-79, Strain/Indicator: V-79/6-THIOGUANINE, Metabolic Activation: NONE, Method: REPLATING) was “inactive; negative”.

For `C=C[C@H]1CN2CC[C@H]1C[C@H]2[C@H](OC(=O)OCC)c1ccnc2ccc(OC)cc12`, the mutagenic call under setting [1] is “inactive; negative”; the mutagenic call (Test System: AMES SALMONELLA TYPHIMURIUM, Strain/Indicator: TA98, Metabolic Activation: RAT, LIVER, S-9, Method: PREINCUBATION) was “inactive; negative”; the mutagenic call under setting [2] was “inactive; negative”; the mutagenic call (Test System: AMES SALMONELLA TYPHIMURIUM, Strain/Indicator: TA100, Metabolic Activation: RAT, LIVER, S-9, Method: PREINCUBATION) was “inactive; negative”.

As to `CCCCC(C)=O`, the mutagenic call is “inactive; negative” (Test System: CHINESE HAMSTER V-79, Strain/Indicator: V-79 (HPRT)/6-THIOGUANINE, Metabolic Activation: NONE, Method: STANDARD PLATE) and “inactive; negative” (Test System: CHINESE HAMSTER V-79, Strain/Indicator: V-79 (HPRT)/6-THIOGUANINE, Metabolic Activation: RAT LIVER S-9, Method: STANDARD PLATE).

In the case of `C=C1[C@@H](O)[C@@H]2O[C@]3(CC[C@H](/C=C/[C@@H](C)[C@@H]4CC(C)=C[C@@]5(O[C@H](C[C@@](C)(O)C(=O)O)CCC5O)O4)O3)CC[C@H]2O[C@@H]1[C@@H](O)C[C@H](C)[C@H]1O[C@@]2(CCCCO2)CC[C@H]1C` (some centres not stated), the mutagenic call (End Point: IN VITRO MICRONUCLEUS, Test System: HUMAN PERIPHERAL LYMPHOCYTES, Metabolic Activation: NONE) is “active; positive”; the mutagenic call (End Point: In vitro micronucleus, Test System: Chinese hamster ovary (CHO-K1) cells, Metabolic Activation: None) is “inactive; negative”; the mutagenic call (End Point: In vitro micronucleus, Test System: Chinese hamster ovary (CHO-K1) cells, Metabolic Activation: Rat, Liver, S-9, Phenobarbital and beta-naphthoflavone) was “active; positive”; the mutagenic call (End Point: In vitro micronucleus, Test System: Chinese hamster ovary (CHO-K1) cells, Metabolic Activation: Rat, Liver, S-9, Phenobarbital and beta-naphthoflavone, heat inactivated) is “inactive; negative”; the mutagenic call (End Point: In vitro micronucleus, Test System: Chinese hamster ovary (CHO-K1) cells, Metabolic Activation: Rat, Liver, S-9, Phenobarbital and beta-naphthoflavone, Method: FISH (fluorescein isothiocyanate isomer 1 (FITC)-conjugated peptide nucleic acid probe)) is “active; positive (dose-dependent increase in percentage of centromer-positive micronucle”; the mutagenic call (End Point: In vitro micronucleus, Test System: Human colon carcinoma Caco-2 cells, Metabolic Activation: None) was “active; positive”. In addition, the mutagenic call is “inactive; negative” (Test System: AMES SALMONELLA TYPHIMURIUM, Strain/Indicator: TA98, Metabolic Activation: S-9, Method: PREINCUBATION); “inactive; negative” (Test System: AMES SALMONELLA TYPHIMURIUM, Strain/Indicator: TA100, Metabolic Activation: S-9, Method: PREINCUBATION); “active; positive” (Test System: CHINESE HAMSTER V-79, Strain/Indicator: V-79 (HGPRT)/6-THIOGUANINE, Metabolic Activation: NONE); “inactive; negative” (Test System: CHINESE HAMSTER V-79, Strain/Indicator: V-79 (HGPRT)/6-THIOGUANINE, Metabolic Activation: RAT, LIVER, HEPATOCYTES).

As to `COc1c2ccccc2[n+]([O-])c2occc12`, the mutagenic call runs as follows: (Test System: AMES SALMONELLA TYPHIMURIUM, Strain/Indicator: TA98, Metabolic Activation: NONE, Method: STANDARD PLATE) “inactive; negative”; (Test System: AMES SALMONELLA TYPHIMURIUM, Strain/Indicator: TA98, Metabolic Activation: RAT LIVER S-9, PHENOBARTITAL, Method: STANDARD PLATE) “inactive; negative”.

Turning to `C=C(OC)[C@H](CSCC(Br)c1ccccc1)NC(=O)CC` (some centres not stated), where the note is “Test System: AMES SALMONELLA TYPHIMURIUM, Strain/Indicator: TA100, Metabolic Activation: NONE, Method: SPOT TEST”, the mutagenic call is “inactive; negative”.

Turning to `Cc1cc2nc3c(=O)[nH]c(=O)nc-3n(C)c2cc1C`, the mutagenic call runs as follows: (Test System: AMES SALMONELLA TYPHIMURIUM, Strain/Indicator: TA97A, Metabolic Activation: NONE, Method: PREINCUBATION) “inactive; negative”; (Test System: AMES SALMONELLA TYPHIMURIUM, Strain/Indicator: TA97A, Metabolic Activation: RAT, CECAL CELL-FREE EXTRACT, Method: PREINCUBATION) “active; positive”; (Test System: AMES SALMONELLA TYPHIMURIUM, Strain/Indicator: TA97A, Metabolic Activation: RAT, LIVER, S9, AROCLOR 1254, Method: PREINCUBATION) “active; positive”; under setting [1], “inactive; negative”; (Test System: AMES SALMONELLA TYPHIMURIUM, Strain/Indicator: TA98, Metabolic Activation: RAT, CECAL CELL-FREE EXTRACT, Method: PREINCUBATION) “inactive; negative”; (Test System: AMES SALMONELLA TYPHIMURIUM, Strain/Indicator: TA98, Metabolic Activation: RAT, LIVER, S9, AROCLOR 1254, Method: PREINCUBATION) “active; positive”. Moreover, the mutagenic call is, setting by setting: under setting [2], “inactive; negative”; (Test System: AMES SALMONELLA TYPHIMURIUM, Strain/Indicator: TA100, Metabolic Activation: RAT, CECAL CELL-FREE EXTRACT, Method: PREINCUBATION) “inactive; negative”; (Test System: AMES SALMONELLA TYPHIMURIUM, Strain/Indicator: TA100, Metabolic Activation: RAT, LIVER, S9, AROCLOR 1254, Method: PREINCUBATION) “inactive; negative”.

Take `O=c1c2c(c3c(ccc4cc5c(ccc6ccccc65)[nH]c43)c1O)O2`: the mutagenic call (Test System: AMES SALMONELLA TYPHIMURIUM, Strain/Indicator: TA98, Metabolic Activation: RAT, LIVER, AROCLOR 1254, NADPH GENERATING SYSTEM, Method: STANDARD PLATE) is “active; positive”; the mutagenic call (Test System: AMES SALMONELLA TYPHIMURIUM, Strain/Indicator: TA100, Metabolic Activation: RAT, LIVER, AROCLOR 1254, NADPH GENERATING SYSTEM, Method: STANDARD PLATE) was “active; positive”; the mutagenic call (Test System: CHINESE HAMSTER V-79, Strain/Indicator: V-79/8-AZAGUANINE, Method: STANDARD PLATE) was “active; positive”.

(Values after PubChem BioAssay AID1259407 (Chemical Carcinogenesis Research Information System (CCRIS), 2018).)
